Patent US9274101B2 (BIOLOG, Inc., priority 2001, dated 2016)

Assays:
HL-60 cells [1] = experiment: Effect of 1 mM chloramphenicol on HL-60 energy utilization; format: cell-based, human; conditions: for Effect of 1 mM chloramphenicol on HL-60 Energy Utilization: negative control without chloramphenicol
Description: In this Example, methods for testing antimicrobial-induced modulation in growth of a cell are described. The antimicrobial selected for this Example is chloramphenicol. However, this application is not intended to be limited to the use of chloramphenicol, translation inhibitors or even antibiotics. HL-60 cells were cultured as described in Example 27.
After washing, HL-60 cells were resuspended in DME-R. An aliquot of the cell suspension was counted by trypan blue exclusion and the cell density was adjusted to 6.67×10^5[…]. Fifty μL of DME-R containing 3 mM chloramphenicol were added to each well of the appropriate number of half area, 96-well plates, followed by 25 μL of the appropriate dilution of each test energy source. Stocks of 133 mM of each test chemical were prepared in tissue culture grade water, sterile filtered, and dilutions were prepared in a master plate so that, upon dilution in a total volume of 150 μL, the final concentrations would be 0.033 to 20 mM. Negative control wells received 25 μL of tissue culture grade water. The cells were plated at a volume of 75 μL/well, giving a final cell density of 5×10^4/well. For each plate containing energy sources and cells, a second, control plate containing only energy sources was prepared. Plates were incubated at 5% CO2, 90-100% humidity, and 37° C. for 24 hours prior to addition of the MTS/MPMS colorimetric reagent (7.5 μL/well). The color formed in each well 24 hours after addition of the colorimetric reagent, was measured with a plate reader at 490 nm with a reference wavelength of 650 nm. OD values from the control plate were subtracted from the OD values obtained with cells prior to normalizing the data to % negative control.
Data shown in Table 25 are expressed as percent negative control without chloramphenicol. […] Chloramphenicol clearly has a different effect on the cells than citrate shown in Example 33.

[2] = test system: Undifferentiated HL-60 cells; experiment: Energy use by undifferentiated HL-60 cells; format: cell-based, human; conditions: for activity at 30 µM / activity at 100 µM / activity at 330 µM / activity at 1000 µM / activity at 3300 µM / activity at 10000 µM / activity at 15000 µM / activity at 20000 µM: Homo sapiens, HL-60, 24 h, read-out: Energy Use by Undifferentiated HL-60 Cells; for activity at 30 µM: Conc. 0.03 mM; for activity at 100 µM: Conc. 0.10 mM; for activity at 330 µM: Conc. 0.33 mM; for activity at 1000 µM: Conc. 1.00 mM; for activity at 3300 µM: Conc. 3.3 mM; for activity at 10000 µM: Conc. 10 mM; for activity at 15000 µM: Conc. 15 mM; for activity at 20000 µM: Conc. 20 mM
E. coli MG1655 = format: cell-based, Escherichia coli
ten strains of E. coli = format: cell-based, Escherichia coli; also: key: +: indicates that the organism tested was capable of utilizing the carbon source listed; −: indicates that the organism tested was not capable of utilizing the carbon source listed; indicates weak positive reactions
HL-60 cells [3] = experiment: HL-60 responses to selected compounds at a range of concentrations; format: cell-based, human; conditions: for activity at 30 µM / activity at 100 µM / activity at 330 µM / activity at 1000 µM / activity at 3300 µM / activity at 10000 µM / activity at 15000 µM / activity at 20000 µM: Homo sapiens, HL-60, read-out: HL-60 Cell Responses to Selected Compounds from PM1 and PM2; for activity at 30 µM: Conc. 0.03 mM; for activity at 100 µM: Conc. 0.10 mM; for activity at 330 µM: Conc. 0.33 mM; for activity at 1000 µM: Conc. 1.00 mM; for activity at 3300 µM: Conc. 3.3 mM; for activity at 10000 µM: Conc. 10 mM; for activity at 15000 µM: Conc. 15 mM; for activity at 20000 µM: Conc. 20 mM
How it was run: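 Washed HL-60 cells (5×10^4/well) in DME-R were exposed to test energy sources at final 0.033 to 20 mM for 24 h at 37 °C, then MTS/MPMS was added for a further 24 h. OD490 (ref 650 nm) was corrected with cell-free control plates and normalized to % of no-energy-source control.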

[4] = energy source 0.03 mM with 1 mM chloramphenicol
[5] = energy source 0.10 mM with 1 mM chloramphenicol
[6] = energy source 0.33 mM with 1 mM chloramphenicol
[7] = energy source 1.00 mM with 1 mM chloramphenicol
[8] = energy source 3.3 mM with 1 mM chloramphenicol
[9] = energy source 10 mM with 1 mM chloramphenicol
[10] = energy source 15 mM with 1 mM chloramphenicol
[11] = energy source 20 mM with 1 mM chloramphenicol

SMILES | Effect of 1 mM chloramphenicol on HL-60 Energy Utilization (HL-60 cells [1]; [4]) | Effect of 1 mM chloramphenicol on HL-60 Energy Utilization (HL-60 cells [1]; [5]) | Effect of 1 mM chloramphenicol on HL-60 Energy Utilization (HL-60 cells [1]; [6]) | Effect of 1 mM chloramphenicol on HL-60 Energy Utilization (HL-60 cells [1]; [7]) | Effect of 1 mM chloramphenicol on HL-60 Energy Utilization (HL-60 cells [1]; [8]) | Effect of 1 mM chloramphenicol on HL-60 Energy Utilization (HL-60 cells [1]; [9]) | Effect of 1 mM chloramphenicol on HL-60 Energy Utilization (HL-60 cells [1]; [10]) | Effect of 1 mM chloramphenicol on HL-60 Energy Utilization (HL-60 cells [1]; [11]) | activity at 30 µM [2] [%] | activity at 100 µM [2] [%] | activity at 330 µM [2] [%] | activity at 1000 µM [2] [%] | activity at 3300 µM [2] [%] | activity at 10000 µM [2] [%] | activity at 15000 µM [2] [%] | activity at 20000 µM [2] [%] | activity at 30 µM (HL-60 cells [3]) [%] | activity at 100 µM (HL-60 cells [3]) [%] | activity at 330 µM (HL-60 cells [3]) [%] | activity at 1000 µM (HL-60 cells [3]) [%] | further results
NC(=O)CC[C@H](N)C(=O)O [L-glutamine] | 33.7 % of negative control | 39.8 % of negative control | 60.6 % of negative control | 69.0 % of negative control | 85.0 % of negative control | 90.0 % of negative control | 89.0 % of negative control | 82.1 % of negative control | 167 | 214 | 227 | 237 | 249 | 220 | 198 | 172 | 147 | 161 | 162 | 168 | protective effect of energy source (HL-60 cells [1]; in the presence of 1 mM chloramphenicol): limit the effect to maintenance of the cells at the level seen with no chloramphenicol and no added energy source; energy source use in words ([2]; undifferentiated HL-60 cells): responsive to high concentrations; suitability as nitrogen source (growth, purple color) (E. coli MG1655): positive; carbon source utilization (ten strains of E. coli): + and −; response in words (HL-60 cells [3]; 0.033 to 20 mM): strongly utilized, even at very low concentrations; activity at 3300 µM (HL-60 cells [3]): 161%; activity at 10000 µM (HL-60 cells [3]): 151%; activity at 15000 µM (HL-60 cells [3]): 127%; activity at 20000 µM (HL-60 cells [3]): 92%
N[C@@H](Cc1c[nH]cn1)C(=O)O [L-histidine] | 6.9 % of negative control | 4.3 % of negative control | 7.3 % of negative control | 7.2 % of negative control | 13.9 % of negative control | 19.1 % of negative control | 13.1 % of negative control | 8.4 % of negative control | 119 | 117 | 105 | 118 | 162 | 144 | 149 | 104 | 123 | 121 | 128 | 135 | suitability as nitrogen source (growth, purple color) (E. coli MG1655): not suitable; activity at 3300 µM (HL-60 cells [3]): 146%; activity at 10000 µM (HL-60 cells [3]): 120%; activity at 15000 µM (HL-60 cells [3]): 123%; activity at 20000 µM (HL-60 cells [3]): 95%
CC(C)[C@H](N)C(=O)O [L-valine] | 6.6 % of negative control | 4.3 % of negative control | 4.0 % of negative control | 3.2 % of negative control | 4.3 % of negative control | 5.5 % of negative control | 2.6 % of negative control | 7.5 % of negative control | 89.6 | 93.2 | 83.8 | 78.6 | 86.4 | 89 | 97.7 | 104 | 117 | 137 | 134 | 135 | suitability as nitrogen source (growth, purple color) (E. coli MG1655): not suitable; activity at 3300 µM (HL-60 cells [3]): 133%; activity at 10000 µM (HL-60 cells [3]): 125%; activity at 15000 µM (HL-60 cells [3]): 122%; activity at 20000 µM (HL-60 cells [3]): 112%
O=C[C@H](O)[C@@H](O)[C@@H](O)[C@H](O)C(=O)O [D-galacturonic acid] | 0.2 % of negative control | −2.7 % of negative control | −4.6 % of negative control | −4.6 % of negative control | 7.9 % of negative control | 8.4 % of negative control | 5.0 % of negative control | −12.8 % of negative control | 116 | 116 | 116 | 141 | 144 | 134 | 162 | 113 | 124 | 125 | 126 | 138 | carbon source utilization (ten strains of E. coli): +; activity at 3300 µM (HL-60 cells [3]): 140%; activity at 10000 µM (HL-60 cells [3]): 122%; activity at 15000 µM (HL-60 cells [3]): 101%; activity at 20000 µM (HL-60 cells [3]): 25%
